Tests used:
[1] = 298.15 K, 101 kPa, Liquid; for viscosity: Capillary tube (Ostwald / Ubbelohde) method; for mass density: Vibrating tube method
[2] = refractive index (Na D-line) (dimensionless); details: 298.15 K; 101.33 kPa; Liquid; Standard Abbe refractometry
[3] = xn = mol fraction of the nth substance listed; details: 298.15 K, 101 kPa, Liquid; for viscosity: Capillary tube (Ostwald / Ubbelohde) method; for mass density: Vibrating tube method
[4] = refractive index (Na D-line) (dimensionless); xn = mol fraction of the nth substance listed; details: 298.15 K, 101 kPa, Liquid, Standard Abbe refractometry

CCCCn1cc[n+](C)c1C.F[B-](F)(F)F [1-butyl-2,3-dimethylimidazolium tetrafluoroborate]
Details | mass density [kg/m3] | refractive index | viscosity [mPa·s]
[1] | 1191.2 | – | 455.81
[2] | – | 1.433 | –

CCCCn1cc[n+](C)c1C.F[B-](F)(F)F [1-butyl-2,3-dimethylimidazolium tetrafluoroborate] + O
Details | mass density, [3] [kg/m3] | refractive index, [4] | viscosity, [3] [mPa·s]
x1 = 0.0085 | 1012.56 | – | 1.06
x1 = 0.0397 | 1053.33 | 1.362 | 1.83
x1 = 0.1068 | 1100.33 | 1.387 | 3.96
x1 = 0.1997 | 1132.18 | 1.404 | 7.34
x1 = 0.2577 | 1144.22 | 1.411 | 10.07
x1 = 0.3222 | 1154.04 | 1.417 | 12.62
x1 = 0.4983 | – | 1.423 | –
x1 = 0.7058 | 1182.14 | 1.429 | 94.63
x1 = 0.7325 | 1183.22 | 1.43 | 104.97
x1 = 0.8659 | 1187.78 | 1.432 | 214.82
x1 = 1 | 1191.2 | 1.433 | 455.81

CCCCn1cc[n+](C)c1.F[B-](F)(F)F [1-butyl-3-methylimidazolium tetrafluoroborate]
Details | mass density [kg/m3] | refractive index | viscosity [mPa·s]
[1] | 1200.3 | – | 100.66
[2] | – | 1.422 | –

CCCCn1cc[n+](C)c1.F[B-](F)(F)F [1-butyl-3-methylimidazolium tetrafluoroborate] + O
Details | mass density, [3] [kg/m3] | refractive index, [4] | viscosity, [3] [mPa·s]
x1 = 0.036 | 1050.07 | – | 1.51
x1 = 0.044 | 1058.55 | 1.36 | 1.67
x1 = 0.1267 | 1112.51 | 1.384 | 3.22
x1 = 0.3134 | 1158.59 | 1.405 | 7.2
x1 = 0.4984 | 1177.85 | 1.412 | 13.63
x1 = 0.5802 | 1183.49 | 1.415 | 19.25
x1 = 0.7488 | – | 1.418 | –
x1 = 0.8089 | 1194.47 | 1.419 | 46.55
x1 = 0.9719 | 1199.54 | 1.421 | 88.87
x1 = 1 | 1200.3 | 1.422 | 100.66

O [water] + CCCCn1cc[n+](C)c1.F[B-](F)(F)F
x2 = 0
Details | refractive index | viscosity [mPa·s]
[3] | – | 0.89
[4] | 1.333 | –

O [water] + CCCCn1cc[n+](C)c1C.F[B-](F)(F)F
x2 = 0
Details | refractive index | viscosity [mPa·s]
[3] | – | 0.89
[4] | 1.333 | –

— the NIST ThermoML archive (doi:10.1016/j.jct.2007.10.002)
